Experimental data as given in patent US9522124B2, “Methods for treating Alzheimer's disease” (Wisconsin Alumni Research Foundation, priority 2011, dated 2016).

Tests used:
Aβ = test: ELISA determination of secreted Aβ in conditioned media of H4 cells; type: cell-based, human; details: 10 μM, 48 hours
Procedure: For Aβ determinations in the conditioned media, H4 cells were plated in 6-well Petri dishes. When 80-90% confluent, cells were washed in PBS and incubated in 1 ml of fresh medium for 48 hr. Secreted Aβ was determined by standard sandwich ELISA as described before (Costantini et al., 2007; Costantini et al., 2006; Jonas et al., 2008; Jonas et al., 2010; Ko and Puglielli, 2009; Pehar et al., 2010). For each sample, the levels of Aβ40, Aβ42, and Aβtotal were quantified as triplicate based upon standard curves run (on every ELISA plate) and then expressed as pmol Aβ/mg of protein. Aβ42 was constantly found to be ˜25% of total Aβ values.

BACE1 = test: Western blot assessment of BACE1 levels in H4 cell lysates; type: cell-based, human; details: H4 cells, 10 μM, 48 hours
Procedure: (§1) Western blotting was performed on a 4-12% Bis-Tris SDS-PAGE system (NuPAGE; Invitrogen, Carlsbad, Calif., USA) as described previously (Costantini et al., 2006; Jonas et al., 2008; Jonas et al., 2010; Ko and Puglielli, 2007; Ko and Puglielli, 2009; Pehar et al., 2010). The following antibodies were used in this study: anti-acetylated lysine (monoclonal; cat. no. ab409; Abcam, Cambridge, Mass., USA); anti-BACE1 (polyclonal; cat. no. ab2077; Abcam); anti-Myc (monoclonal; cat. no. sc-40; santa cruz, Santa Cruz, Calif., USA); anti-ATases/NAT8 (polyclonal; cat. no. AP4957c; Abgent, San Diego, Calif., USA); anti-actin (monoclonal; cat. no. A1978; Sigma, St Louis, Mo., USA); anti-C99 (monoclonal; cat. no. M066-3; MBL, Woburn, Mass., USA); anti-acetylated H3 (polyclonal; cat. no. 06-599, Millipore, Billerica, Mass.); anti-acetylated H4 (polyclonal; cat. no. 06-866, Millipore, Billerica, Mass.); anti-αPCNA (polyclonal; cat. no. AP2835b, Abgent, San Diego, Calif., USA).
Samples were imaged with classical chemiluminescence and with the LiCor Odyssey Infrared Imaging System (LI-COR Biosciences, Lincoln, Nebr., USA). For chemiluminescent detection, HRP-conjugated anti-mouse or anti-rabbit secondary antibodies were used at 1:6000 dilution in 3% BSA/TBST (GE Healthcare). Detection was performed with either Lumiglo (KPL) or ECL Plus (GE Healthcare). For infrared imaging, goat anti-rabbit Alexa Fluor 680-conjugated secondary antibodies were used.
To assess their biological effects, we treated human neuroglioma (H4) cells with 10 μM of both compounds. […] This might reflect different kinetics of inhibition as well as different IC50s (see FIG. 2). Alternatively, it might also be explained by different cell-permeability properties. In fact, the cLog P for compound 9 and 19 is 5.03 and 3.19, respectively. The cLog P (or partition coefficient) is an indication of partition properties of a compound between hydrophobic and hydrophilic compartments. Higher values indicate preferential distribution in hydrophobic environments and, as such, increased permeability across biological membranes.

ATase1 and ATase2 [1] = test: In vitro acetyltransferase assay, structure-activity of derivatives of compound 9 and 19 (Tables 3, 4); type: biochemical, human; details: refers to Table 3 / Table 4
Procedure: (§2) The acetyl:CoA lysine acetyltransferase activity of ATase1 and ATase2 was assayed as described before (Ko and Puglielli, 2009). Briefly, we adapted a commercially available fluorescent kit (cat. no. 10006515, Cayman Chemicals) as follows: as source of the enzymatic activity, we used affinity purified ATase1-myc and ATase2-myc at the final concentration of 300 ng/μl; as donor of the acetyl group, we used acetyl-CoA at the final concentration of 12.5 μM. […] The acetyltransferase assay was performed as recommended by the manufacturer.
(§3) We previously described a fluorescent assay that is able to assess the acetylCoA:lysine acetyltransferase activity of ATase1 and ATase2 in vitro (Ko and Puglielli, 2009). The assay employs affinity purified ATase1 or ATase2 (as enzymes), acetyl-CoA (as donor of the acetyl group) and a recombinant peptide corresponding to the N-terminal tail of the histone protein H3 (as acceptor of the acetyl group). The H3 peptide was preferred to affinity purified BACE1 because it is acetylated in a conformation independent manner ((Ko and Puglielli, 2009) and data not shown) and, therefore, more suitable for large screening approaches. To identify possible ATase1 and ATase2 inhibitors we used the assay to screen a single library of 14,400 small molecules/compounds. The screen identified 186 small molecules/compounds able to inhibit ATase1, ATase2 or both in vitro. […] Each compound was then screened for cytotoxic properties by using multi-plex cytotoxicity assays on a variety of cell lines, including human neuroblastoma and human neuroglioma. […] The above 30 compounds were individually screened on human neuroglioma (H4) cells for their ability to reduce the levels of BACE1 and the generation of Aβ. Two compounds, 9 and 19, produced significant changes and were object of further study.
Next we decided to analyze structure-activity properties of both compounds. In the case of compound 9, we designed 13 different chemical derivatives and assessed IC50s in vitro.

ATase1 and ATase2 [2] = test: Western blot assessment of endogenous ATase1/ATase2 levels in H4 cells; type: cell-based, human; details: 10 μM, 48 hours
Procedure: FIG. 4. Compound 9 causes degradation of the ATases. (A) H4 cells were treated with the indicated compounds (10 μM) for 48 hours prior to Western blot assessment of BACE1 and ATase1/ATase2 levels in total cell lysates. (B, D and E) Quantification of changes are expressed as percent of control (no treatment) and are the average (n=3)±S.D.*, P<0.05; **, P<0.005; ^#, P<0.0005. (C) ELISA determination of secreted Aβ in the conditioned media of the experiment described in (A). Results are expressed as percent of control (no treatment) and are the average (n=3)±S.D.*, P<0.05; **, P<0.005. (F) CHO cells over-expressing either ATase1 or ATase2 were treated with compound 9 (10 μM) for 48 hours prior to Western blot assessment of ATase1 and ATase2 levels in total cell lysates.
FIG. 13. Compound 9 decreases the levels of both ATase1 and ATase2. (A) H4 cells were treated with the increasing concentrations of compound 9 for 48 hours prior to Western blot assessment of BACE1 and ATase1/ATase2 levels in total cell lysates. (B-D) Quantification of changes are expressed as percent of control (no treatment) and are the average (n=3)±S.D.*, P<0.05; **, P<0.005; ^#, P<0.0005.
as §1, with “AP2835b, Abgent, San Diego, Calif., USA).” left out

ATase1 = target: T1, ATase1 (Homo sapiens, UniProt Q9UHF3); test: AcetylCoA:lysine acetyltransferase assay (fluorescent, affinity purified ATase1-myc); type: biochemical
T1 construct: myc (C); made in house
T1 sequence (Q9UHF3 1-227): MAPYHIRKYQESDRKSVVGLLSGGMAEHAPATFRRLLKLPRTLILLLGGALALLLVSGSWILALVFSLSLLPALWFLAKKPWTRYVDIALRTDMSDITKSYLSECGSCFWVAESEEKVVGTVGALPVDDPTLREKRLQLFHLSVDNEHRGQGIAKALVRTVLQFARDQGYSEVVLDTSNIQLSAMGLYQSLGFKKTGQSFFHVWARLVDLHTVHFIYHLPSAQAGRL
Procedure: as §2
(§4) For kinetic analysis of ATase1 and ATase2 inhibition, the assays were performed in the presence of the indicated concentrations of compound 9, 19 and 9.I. The concentration of acetyl-CoA was varied from […]. Values were plotted as a Lineweaver-Burk plot using Graphpad Prism software.
as §3

ATase2 = target: T2, ATase2 (Homo sapiens, UniProt Q9UHE5); test: AcetylCoA:lysine acetyltransferase assay (fluorescent, affinity purified ATase2-myc); type: biochemical
T2 construct: myc (C); made in house
T2 sequence (Q9UHE5 1-227): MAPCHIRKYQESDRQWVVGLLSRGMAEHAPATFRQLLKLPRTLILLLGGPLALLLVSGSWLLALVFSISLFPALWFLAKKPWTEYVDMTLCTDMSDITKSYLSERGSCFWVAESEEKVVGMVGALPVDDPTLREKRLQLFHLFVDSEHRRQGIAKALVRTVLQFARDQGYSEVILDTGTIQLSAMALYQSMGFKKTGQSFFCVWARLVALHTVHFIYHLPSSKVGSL
Procedure: as §2, §4, §3

[3] = tested on: cytosolic and nuclear proteins, histone proteins H3 and H4; test: Lysine acetylation profile of cytosolic and nuclear proteins in H4 cells; type: cell-based, human; details: 48 hours
Procedure: FIG. 8. […] (A and B) H4 cells were treated with either compound 9 or 19 for 48 hours prior to Western blot assessment of the acetylation profile of cytosolic (A) and nuclear (B) proteins. (C) The nuclear fraction used in (B) was also used to assess the lysine acetylation profile of the histone proteins H3 and H4.
as §1
Cytosolic and nuclear extracts were prepared as described before (Ko and Puglielli, 2007). For cytosolic extracts, cells were homogenized in homogenization buffer containing 25 mM Tris-HCl, pH 7.4, 0.5 mM EDTA, 0.5 mM EGTA, and a protease inhibitor mixture. The homogenates were centrifuged at 14,000×g for 15 min, and supernatants were collected as cytosolic proteins.
For nuclear extracts cells were scraped into ice-cold phosphate-buffered saline and collected by centrifugation. The cell pellets were suspended in 3 volumes of lysis buffer (20 mM Hepes, pH 7.9, 10 mM KCl, 1 mM EDTA, pH 8.0, 0.2% Nonidet P-40, 10% glycerol, and a protease inhibitor mixture) followed by incubation on ice for 10 min. Cell suspensions were gently pipetted up and down; the lysates were then centrifuged at 14,000×g for 5 min at 4° C. to obtain nuclear pellets. Nuclear pellets were washed twice with cell lysis buffer (lacking Nonidet P-40 and protease inhibitor mixture) and then resuspended in 2 volumes of nuclear extract buffer (20 mM Hepes, pH 7.9, 10 mM KCl, 1 mM EDTA, pH 8.0, 420 mM NaCl, 20% glycerol, and a protease inhibitor mixture). The nuclei were extracted by incubation at 4° C. for 30 min with gentle agitation followed by centrifugation at 14,000×g at 4° C. for 5 min; the resultant supernatant fraction was used as a nuclear extract.

C99 = test: Western blot assessment of C99 levels in H4 cell lysates; type: cell-based, human; details: H4 cells, 48 hours
Procedure: FIG. 7. Compound 9 and 19 decrease levels and activity of BACE1. H4 cells were treated with either compound 9 or 19 for 48 hours prior to Western blot assessment of BACE1 and C99 levels in cell lysates. C99 is the immediate product of BACE1-mediated cleavage of APP.
as §1

[4] = tested on: histone acetyltransferase p300/CBP; test: In vitro activity of histone acetyltransferase p300/CBP; type: biochemical; details: data not shown
[5] = Lineweaver-Burk plot, acetyl-CoA varied

| SMILES | inhibitory activity of derivative relative to parent compound (in words) (ATase1 and ATase2 [1]) | levels of Aβ in the conditioned media / generation of Aβ (Aβ) | levels of BACE1 (BACE1) | other results |
| --- | --- | --- | --- | --- |
| N=c1c(Cl)c2oc3cc(N)ccc3nc-2c2ccccc12 [Compound 9.A] | – | only 9.I retained significant ability | only 9.I retained significant ability | – |
| CCN(CC)c1ccc2nc3c4ccccc4c(=O)cc-3oc2c1 [Compound 9.B] | – | only 9.I retained significant ability | only 9.I retained significant ability | – |
| O=c1ccc2nc3ccc(O)cc3oc-2c1 [Compound 9.I] | retained inhibitory properties | retained significant ability | retained significant ability | endogenous levels of ATase1 and ATase2 (ATase1 and ATase2 [2]): significantly down-regulate |
| CCOc1ccccc1NC1=C(Cl)C(=O)c2ccccc2C1=O [Compound 19] | – | decreased levels of Aβ | significant reduction | IC50 (ATase1): ~13.3 µM; kinetics of inhibition for acetyl-CoA, ATase1 (ATase1; [5]): non-competitive inhibition; IC50 (ATase2): 18.2 µM; kinetics of inhibition for acetyl-CoA, ATase2 (ATase2; [5]): non-competitive inhibition; acetylation profile of cytosolic and nuclear proteins [3]: Neither compound 9 nor compound 19 produced significant changes; acetylation profile of the histone protein H3 and H4 ([3]; nuclear fraction): slight reduction; cellular levels of C99 (C99): decreased cellular levels of C99; inhibition of in vitro activity of p300/CBP [4]: neither compound inhibited |

Now from value to compound, other results behind:

| inhibitory activity of derivative relative to parent compound (in words) (ATase1 and ATase2 [1]) | SMILES | levels of Aβ in the conditioned media / generation of Aβ (Aβ) | levels of BACE1 (BACE1) | other results |
| --- | --- | --- | --- | --- |
| highest activity | Oc1c(Cl)c2nc3ccccc3nc2c2ccccc12 [Compound 9.C] | only 9.I retained significant ability | only 9.I retained significant ability | – |
| decreased activity | O=C1C(Cl)=C2Nc3ccccc3OC2(O)c2ccccc21 (stereo not drawn) [Compound 9.E] | only 9.I retained significant ability | only 9.I retained significant ability | – |
